{
  "source": "patent US20250195457A1",
  "about": "“PHARMACEUTICAL COMPOSITION FOR TREATMENT OF PARKINSON'S DISEASE” (Eisai R&D Management Co., Ltd., priority 2022, published 2025)",
  "key": {"mouse kindling model": {"tested_on": "mouse kindling model", "settings": "anti-seizure effect (ED50) in mouse kindling model versus neurotoxic effect (TD50) in rotarod test; compared with a control compound; cited from earlier work"}, "[1]": {"tested_on": "Parkinson's disease model cynomolgus monkeys (MPTP)", "assay": "Test Example 1: NDSs after administration of Compound (I) alone in MPTP Parkinson's disease model monkeys", "type": "in vivo", "parameters": "key to Subgroup 2: Specific motor functions score: specific motor functions subscore, range 0-21", "description": "The therapeutic effect of Compound (I) on Parkinson's disease was examined using Parkinson's disease model animals which are produced by administering MPTP (1-methyl-4-phenyl-1,2,3,6-tetrahydropyridine).\nMPTP was administered to male cynomolgus monkeys at the age of 4 to 5 to make Parkinson's disease model cynomolgus monkeys. MPTP was additionally administered to animals with neurologic deficit scores (Neurological deficit scores: NDSs, Schneider et al., “Development of levodopa-induced dyskinesias in parkinsonian monkeys may depend upon rate of symptom onset and/or duration of symptoms”, Brain Res., 2003, 990:38-44.) of less than 25.\nEight Parkinson's disease model cynomolgus monkeys were randomized into 5 groups of approximately equal mean and variance in terms of Parkinson behavior rating (Tremor score) and body weight. On subsequent cycle 2, cycle 3, cycle 4 and cycle 5, the animals were crossed over to receive the other treatments. A wash out period of one week or more was set between each cycle.\nBy the end of the study, each animal had received all the five treatments. Istradefylline is an adenosine A2A receptor antagonist approved as a drug for improving a wearing off phenomenon in Parkinson's disease being treated with a levodopa-containing preparation in the United States of America and Japan (Patent Literature 4). As a vehicle, an aqueous solution containing 0.43% (w/v) methyl cellulose 400, 10% (v/v) dimethyl sulfoxide (DMSO), and 4.5% (w/v) Cremophor (R) was used.\nBefore the administration, and 1 hr., 4 hrs., and 24 hrs. after the administration of the test substances, the NDSs of the monkeys were evaluated. The evaluation items are as follows. The behavior evaluation was performed in a blinded manner. The NDSs of the groups were compared using Steel's test. The p-values of less than 0.05 were considered to be statistically significant.\nSubgroup 1: generalized behaviors (0-32) • 1.1a Appetite • 0: Normal • 1: Up to 30% food left • 2: Up to 65% food left • 3: Greater than 65% food left • 1.1b Response to offered food • 0: Responds to offered food • 1: Inconsistent response to offered food • 2: Little to no interest in offered food • 1.2 Overall activity • 0: Normal • 1: Mild hypokinesia; decrease in spontaneous movement • 2: Moderate hypokinesia; sparse spontaneous movement • 3: Severe hypokinesia; no spontaneous movement; tends to remain in one place • 1.3 Appearance • 0: Normal • 1: Mild but noticeable decrease in self-maintenance • 2: Moderate decrease in self-maintenance • 3: Severe lack of self-maintenance • 1.4 Posture • 0: Normal • 1: Minor flexing or stooping • 2: Moderate flexing or stooping; head and upper body almost parallel to floor of cage • 3: Severe flexing or stooping; head lowered to feet • 1.5 Balance • 0: Normal • 1: Mild loss on arising or movement • 2: Moderate loss on arising or movement; occasionally falls or supports self to keep from falling • 3: Severe loss of balance; falls • 1.6 Climbing • 0: Climbing observed with no delays in initiation/execution • 1: Mild deficit in ability to climb and support weight • 2: Moderate deficit in ability to climb and support weight; tends to ‘slide down’ • 3: Absence of any climbing behavior • 1.7 Tremor • 0: Absent • 1: Slight and intermittent • 2: Slight and persistent or moderate and intermittent • 3: Moderate/severe and persistent • 1.8 Freezing during movement • 0: Absent • 1: Occasional freezing for brief periods • 2: Occasional freezing for prolonged periods or frequent freezing for brief periods • 3: Prolonged and frequent freezing • 1.9 Facial expression • 0: Normal • 1: Mild hypomimia • 2: Moderate hypomimia • 3: Severe, masked fixed faces • 1.10 Defense reaction • 0: Normal • 1: Mild, noticeable reduction in reaction or slowed reaction, but can be provoked to react • 2: Moderate reduction in reaction; can produce facial display but not body reaction • 3: Little to no response\nSubgroup 2: Specific Motor Functions (0-21)"}, "[2]": {"settings": "Compound (I) high dose 50 mg/kg (G4), 1 hr. after administration"}, "[3]": {"settings": "Compound (I) high dose 50 mg/kg (G4), 4 hrs. after administration"}, "[4]": {"settings": "Compound (I) high dose 50 mg/kg (G4), 24 hrs. after administration"}, "[5]": {"settings": "Compound (I) high dose 50 mg/kg (G4), Pre (before administration)"}, "[6]": {"settings": "Compound (I) low dose 5 mg/kg (G2), 1 hr. after administration"}, "[7]": {"settings": "Compound (I) low dose 5 mg/kg (G2), 4 hrs. after administration"}, "[8]": {"settings": "Compound (I) low dose 5 mg/kg (G2), 24 hrs. after administration"}, "[9]": {"settings": "Compound (I) low dose 5 mg/kg (G2), Pre (before administration)"}, "[10]": {"settings": "Compound (I) middle dose 15 mg/kg (G3), 1 hr. after administration"}, "[11]": {"settings": "Compound (I) middle dose 15 mg/kg (G3), 4 hrs. after administration"}, "[12]": {"settings": "Compound (I) middle dose 15 mg/kg (G3), 24 hrs. after administration"}, "[13]": {"settings": "Compound (I) middle dose 15 mg/kg (G3), Pre (before administration)"}},
  "data": [
    {"smiles": "NS(=O)(=O)N[C@H]1c2c(F)cc(F)cc2CC1(F)F", "note": "[Compound (I), N-[(1S)-2,2,5,7-tetrafluoro-2,3-dihydro-1H-inden-1-yl]sulfamide]", "values": [
      {"measurement": "therapeutic index (TD50/ED50)", "setting": "mouse kindling model", "value": "higher"},
      {"measurement": "Subgroup 1: GENERALIZED BEHAVIORS score", "setting": "[1]; [2]", "value": "17.1 ± 0.8"},
      {"measurement": "Subgroup 2: Specific motor functions score", "setting": "[1]; [2]", "value": "12.0 ± 0.5"},
      {"measurement": "Total score of NDSs", "setting": "[1]; [2]", "value": "29.1 ± 1.3"},
      {"measurement": "Tremor score", "setting": "[1]; [2]", "value": "1.6 ± 0.2"},
      {"measurement": "Subgroup 1: GENERALIZED BEHAVIORS score", "setting": "[1]; [3]", "value": "14.8 ± 1.0"},
      {"measurement": "Subgroup 2: Specific motor functions score", "setting": "[1]; [3]", "value": "9.9 ± 0.5"},
      {"measurement": "Total score of NDSs", "setting": "[1]; [3]", "value": "24.6 ± 1.3"},
      {"measurement": "Tremor score", "setting": "[1]; [3]", "value": "1.1 ± 0.1"},
      {"measurement": "Subgroup 1: GENERALIZED BEHAVIORS score", "setting": "[1]; [4]", "value": "17.3 ± 1.1"},
      {"measurement": "Subgroup 2: Specific motor functions score", "setting": "[1]; [4]", "value": "12.0 ± 0.6"},
      {"measurement": "Total score of NDSs", "setting": "[1]; [4]", "value": "29.3 ± 1.6"},
      {"measurement": "Tremor score", "setting": "[1]; [4]", "value": "1.4 ± 0.2"},
      {"measurement": "Subgroup 1: GENERALIZED BEHAVIORS score", "setting": "[1]; [5]", "value": "19.0 ± 0.8"},
      {"measurement": "Subgroup 2: Specific motor functions score", "setting": "[1]; [5]", "value": "13.5 ± 0.4"},
      {"measurement": "Total score of NDSs", "setting": "[1]; [5]", "value": "32.5 ± 1.1"},
      {"measurement": "Tremor score", "setting": "[1]; [5]", "value": "2.1 ± 0.1"},
      {"measurement": "Subgroup 1: GENERALIZED BEHAVIORS score", "setting": "[1]; [6]", "value": "16.1 ± 0.9"},
      {"measurement": "Subgroup 2: Specific motor functions score", "setting": "[1]; [6]", "value": "11.5 ± 0.6"},
      {"measurement": "Total score of NDSs", "setting": "[1]; [6]", "value": "27.6 ± 1.5"},
      {"measurement": "Tremor score", "setting": "[1]; [6]", "value": "1.8 ± 0.2"},
      {"measurement": "Subgroup 1: GENERALIZED BEHAVIORS score", "setting": "[1]; [7]", "value": "16.0 ± 0.7"},
      {"measurement": "Subgroup 2: Specific motor functions score", "setting": "[1]; [7]", "value": "12.5 ± 0.3"},
      {"measurement": "Total score of NDSs", "setting": "[1]; [7]", "value": "28.5 ± 1.0"},
      {"measurement": "Tremor score", "setting": "[1]; [7]", "value": "1.8 ± 0.2"},
      {"measurement": "Subgroup 1: GENERALIZED BEHAVIORS score", "setting": "[1]; [8]", "value": "17.1 ± 0.8"},
      {"measurement": "Subgroup 2: Specific motor functions score", "setting": "[1]; [8]", "value": "11.9 ± 0.4"},
      {"measurement": "Total score of NDSs", "setting": "[1]; [8]", "value": "29.0 ± 1.0"},
      {"measurement": "Tremor score", "setting": "[1]; [8]", "value": "2.1 ± 0.1"},
      {"measurement": "Subgroup 1: GENERALIZED BEHAVIORS score", "setting": "[1]; [9]", "value": "17.4 ± 0.8"},
      {"measurement": "Subgroup 2: Specific motor functions score", "setting": "[1]; [9]", "value": "13.3 ± 0.5"},
      {"measurement": "Total score of NDSs", "setting": "[1]; [9]", "value": "30.6 ± 1.1"},
      {"measurement": "Tremor score", "setting": "[1]; [9]", "value": "2.0 ± 0.0"},
      {"measurement": "Subgroup 1: GENERALIZED BEHAVIORS score", "setting": "[1]; [10]", "value": "15.5 ± 1.0"},
      {"measurement": "Subgroup 2: Specific motor functions score", "setting": "[1]; [10]", "value": "12.3 ± 0.5"},
      {"measurement": "Total score of NDSs", "setting": "[1]; [10]", "value": "27.8 ± 1.5"},
      {"measurement": "Tremor score", "setting": "[1]; [10]", "value": "1.6 ± 0.2"},
      {"measurement": "Subgroup 1: GENERALIZED BEHAVIORS score", "setting": "[1]; [11]", "value": "15.0 ± 0.8"},
      {"measurement": "Subgroup 2: Specific motor functions score", "setting": "[1]; [11]", "value": "11.5 ± 0.4"},
      {"measurement": "Total score of NDSs", "setting": "[1]; [11]", "value": "26.5 ± 1.0"},
      {"measurement": "Tremor score", "setting": "[1]; [11]", "value": "1.6 ± 0.2"},
      {"measurement": "Subgroup 1: GENERALIZED BEHAVIORS score", "setting": "[1]; [12]", "value": "16.8 ± 0.9"},
      {"measurement": "Subgroup 2: Specific motor functions score", "setting": "[1]; [12]", "value": "12.8 ± 0.3"},
      {"measurement": "Total score of NDSs", "setting": "[1]; [12]", "value": "29.5 ± 1.1"},
      {"measurement": "Tremor score", "setting": "[1]; [12]", "value": "1.8 ± 0.2"},
      {"measurement": "Subgroup 1: GENERALIZED BEHAVIORS score", "setting": "[1]; [13]", "value": "17.3 ± 0.6"},
      {"measurement": "Subgroup 2: Specific motor functions score", "setting": "[1]; [13]", "value": "12.9 ± 0.4"},
      {"measurement": "Total score of NDSs", "setting": "[1]; [13]", "value": "30.1 ± 0.9"},
      {"measurement": "Tremor score", "setting": "[1]; [13]", "value": "2.0 ± 0.0"}
    ]}
  ]
}
